A short description of the data set: gradient 5% acetonitrile 3 min, to 50% in 2 min, to 85% in 15 min, held 3 min, 100 µL/min. To be noted: column: Zorbax Extend-C18 2.1 x 50 mm; eluents: water / acetonitrile, 0.1% formic acid. In a few lines: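 Data were gathered over 3 months by HPLC coupled to a quadrupole time-of-flight mass spectrometer, operated in positive and negative ionization mode. Mixtures of ~100 pure standards ran on a Zorbax Extend-C18 column (2.1 × 50 mm, 1.8 μm) at 100 μL/min, with water and acetonitrile each containing 0.1% formic acid and dead and dwell volumes of 40 μL and 900 μL. Retention time was read from adduct peaks picked by computer and checked manually.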
`CC(C)CNC(=O)c1cn(-c2ccc(S(=O)(=O)N3CCCC(C)C3)cn2)cn1` (stereo not given) registered an RP-LC retention time of 936 s.
Then `COc1ccc(NC(=O)Cn2nc3n(c2=O)CCCCC3)cc1Cl`, with 692 s.
Then `CCn1c(=O)n(CC(=O)N(C)C2CCCCC2)c(=O)c2cnc(-c3ccccc3)nc21`, with 1130 s; and `O=C(Nc1cccc(F)c1)C1CCN(S(=O)(=O)c2cc(C(=O)N3CCCC3)cs2)CC1`, with 829 s; and `COc1cccc(N2C=C(C(=O)N3CCCC3)S(=O)(=O)c3ccc(Cl)cc32)c1`, with 853 s.
Then `CCC(C)NC(=O)CC1CCN(C(=O)c2[nH]c(C)c(C(=O)OC)c2C)CC1` (stereo not given), with 663 s; and `CCOC(=O)c1cccc(NC(=O)Nc2cccc(-c3ccc(N4CCOCC4)nn3)c2)c1`, with 742 s.
In turn, `CCc1noc(-c2ccc(-n3cnc(C(=O)NC(C)CC)c3)nc2)n1` (stereo not given) yielded an RP-LC retention time of 828 s.
Then `CS(=O)(=O)N1CCC(C(=O)Nc2ccc3c(c2)N(C(=O)C2CCCO2)CC3)CC1` (stereo not given), with 631 s; and `O=C(CN1C(=O)C(C(=O)N2CCCC2)Sc2ccccc21)Nc1ccc(F)c(F)c1` (stereo not given), with 1040 s.
For `CC(C)CCNC(=O)Cn1c(=O)c(S(=O)(=O)c2ccccc2)cc2ccccc21` the value was 866 s; for `CC(C)N1CCn2c(nc3cc(C(=O)NCc4ccc5c(c4)OCO5)ccc32)C1=O`, 680 s; for `Cc1ccc(-c2noc(Cn3c(=O)n(CC4CCCO4)c(=O)c4ccccc43)n2)cc1` (stereo not given), 1040 s.
Then `COC(=O)CNC(=O)NCCc1noc(C2CC2)n1`, with 598 s.
`CC(C)n1c(=O)oc2cc(-c3noc(-c4ccccc4Br)n3)ccc21` returned an RP-LC retention time of 1220 s.
In turn, `Cc1ccc(Oc2nccnc2N2CCCC(C(=O)NCc3ccc(C)c(C)c3)C2)cc1` (stereo not given) came in with an RP-LC retention time of 1140 s.
On to `CNC(=O)c1nc(C(=O)NCc2ccc(C)cc2)cs1`, for which the RP-LC retention time was 739 s.
`COc1ccc(NS(=O)(=O)c2ccc3c(c2)CCCC(=O)N3)cc1Cl` returned an RP-LC retention time of 738 s.
As for `COC(=O)c1cc(C2CC2)nc2c1c(=O)n(Cc1cccc(Cl)c1)c(=O)n2C`, the RP-LC retention time amounted to 1160 s.
For `Cn1cc(C(=O)N2CCN(C3CCCCC3)CC2)c2cccnc21` the value was 632 s; for `CCOCCCNC(=O)C1c2c(n(C)c3ccccc23)SCC(=O)N1Cc1ccc(OC)cc1` (stereo not given), 875 s.
Then `CN(C(=O)Cc1ccc(Cl)c(Cl)c1)C(CN1CCCC1)c1cccc(OCC(=O)O)c1` (stereo not given), with 770 s.
On to `Cc1ccc(Cl)cc1NC(=O)N1CCCC1c1c(C)noc1C` (stereo not given), for which the RP-LC retention time is 853 s.
For `O=C(Nc1cccc(Cl)c1)N1CCC(n2cnc3cc(F)ccc3c2=O)CC1` the value was 858 s; for `Cn1ccc2cc(CCC(=O)N3CCN(c4ccc(Cl)cc4)CC3)ccc21`, 1050 s.
Then `O=C(Cn1cnc2nc3c(cc2c1=O)CCCC3)N1CCN(C(=O)c2ccco2)CC1`, with 622 s; and `Cc1ccccc1NC(=O)C1(C)Oc2cccnc2NC1=O` (stereo not given), with 673 s.
For `CCc1noc(NC(C)=O)c1-c1ccc(C)c(S(=O)(=O)Nc2ccc(C(F)(F)F)cc2)c1` the value was 902 s; for `Cc1cc(C(=O)NCc2ccco2)c2cccc(-c3ccccc3)c2n1`, 936 s; for `O=C(Nc1cccn2c(C3CCC3)nnc12)c1ccccn1`, 781 s.
For the compound `COc1nc2ccccc2nc1N1CCCC(C(=O)Nc2ccc(Br)cc2)C1` (stereo not given), the RP-LC retention time amounted to 1250 s.
Then `Cc1ccn2c(NC(=O)COc3ccc(Cl)cc3)c(-c3ccc(F)cc3)nc2c1`, with 759 s.
For `CCc1cc(C2CCCN2Cc2ccc(OCC(N)=O)c(OC)c2)on1` (stereo not given) the value was 570 s; for `COc1ccccc1CNC(=O)CN1CCCC1=O`, 631 s.
Then `Cn1cc(C(=O)NC2CCCCC2)c2cccnc21`, with 726 s.
`CC1CCc2onc(C(=O)N3CCN(c4ccccc4)CC3)c2C1` (stereo not given): the RP-LC retention time was 1020 s.
For `CCOc1ccc(CCNC(=O)c2nc(CCS(=O)(=O)c3ccccc3)no2)cc1OCC` the value was 900 s.
On to `COc1ccc(NC(=O)NC2CCN(c3ccc(C)c(C)c3)C2=O)cc1` (stereo not given), for which the RP-LC retention time stood at 821 s.
Then `CCOc1ccccc1NC(=O)C1CCN(S(=O)(=O)c2cc(-c3noc(C)n3)cs2)CC1`, with 996 s.
Then `CCC1Oc2ccc(S(=O)(=O)N3CCC(C(=O)Nc4ccc(F)cc4C)CC3)cc2NC1=O` (stereo not given), with 922 s.
Then `COc1ccc(C(=O)NC2CCN(c3cc(-c4cccs4)[nH]n3)C2)c(C)c1` (stereo not given), with 712 s; and `CNC(=O)N1c2ccccc2CC1c1nc(C(C)C)no1` (stereo not given), with 799 s.
Regarding `Cc1nc(-c2csc(S(=O)(=O)N3CCCC(C(=O)Nc4cccc(C)c4C)C3)c2)no1` (stereo not given), the RP-LC retention time turned out to be 951 s.
As to `CCC(=O)N1c2ccccc2NC2=C(C(=O)CC(C)(C)C2)C1c1ccc(C#N)cc1` (stereo not given), the RP-LC retention time is 797 s.
Compound `COc1cccc(NC(=O)Cn2nc3c(Oc4cccc(Cl)c4)nccn3c2=O)c1` gave an RP-LC retention time of 858 s.
Then `CCOc1ccc(-c2cc(=O)n(CCCC(=O)N3CCN(S(C)(=O)=O)CC3)cn2)cc1`, with 680 s; and `Cc1ccc(N2CC(c3noc(-c4cccs4)n3)CC2=O)cc1` (stereo not given), with 946 s; and `CC(C)CN1CCN(S(=O)(=O)c2ccc(-c3nnc(C4CCC4)o3)o2)CC1`, with 610 s.
Then `C=CCN(Cc1nc(-c2cccc(C)c2)no1)C(=O)Nc1ccccc1OC`, with 1120 s; and `Cc1cccc(Nc2nc(-c3ccncc3)cs2)c1`, with 734 s; and `O=C(NCCO)c1cccc(-c2cc(Nc3ccc(OC(F)(F)F)cc3)ncn2)c1`, with 793 s.
Then `Cc1noc(C)c1-c1ccc(S(=O)(=O)NC2CCCc3ccccc32)cc1` (stereo not given), with 1040 s; and `Cc1sc(-c2cc(C(F)(F)F)[nH]n2)cc1S(=O)(=O)N1CCCCCC1`, with 1110 s.
Compound `COCC(=O)N(CC(=O)N1CCc2sccc2C1COc1ccc(C)cc1C)CC1CCCO1` (stereo not given) registered an RP-LC retention time of 929 s.
Then `CCC(C(=O)NCc1ccco1)n1nc(C)c2c(C)n(-c3ccccc3)nc2c1=O` (stereo not given), with 831 s; and `Cc1ccsc1CN1CCn2nnc(CCC(=O)N3CCOCC3)c2C1`, with 628 s; and `Cc1ccc2nc(C(=O)NC(C)c3ccc(F)cc3)cn2c1` (stereo not given), with 670 s.
For `CCCCN1C(=O)CC2CCOC21C` (stereo not given) the value was 753 s; for `CCCN1C(=O)COc2ccc(-c3noc(/C=C/c4ccccc4OC)n3)cc21`, 1270 s.
Compound `O=C(Cn1ccn(-c2ccc3c(c2)OCCO3)c(=O)c1=O)Nc1ccccc1F` gave an RP-LC retention time of 655 s.
Then `O=C(Cn1ccc2sccc2c1=O)Nc1ccc(F)cc1`, with 728 s; and `O=C(Nc1ccccc1Cl)C1CCCN(C(=O)Cc2cccc3ccccc23)C1` (stereo not given), with 995 s; and `Cc1ccccc1-c1noc(Cn2c(=O)n(-c3ccccc3C)c(=O)c3sccc32)n1`, with 1050 s.
Then `O=C(C1CCCC1)N1CC(c2nc(-c3ccccc3)no2)C2(CCOCC2)C1` (stereo not given), with 923 s.
Then `CCCOc1ccc(CNC(=O)c2nc3cccnc3n(CC)c2=O)cc1`, with 918 s.
The compound `CCOc1ccc(CN2CCC3(CC2)CC(O)CCO3)cc1OC` (stereo not given) gave an RP-LC retention time of 583 s.
Then `CSc1cccc(NC(=O)CCc2c(-c3ccccc3)nc3ccccn23)c1`, with 691 s; and `CCOc1ccc(-c2nc3ncccn3c2NCc2ccccc2)cc1`, with 758 s; and `COc1ccc(CNC(=O)N2CCC(c3nc(C(=O)N4CCOCC4)c(C)o3)CC2)cc1`, with 671 s.
As for `Cc1csc(-c2ccc(CNC(=O)c3ccnn3C)cc2)n1`, the RP-LC retention time is 772 s.
For `COc1ccccc1CNC(=O)C1CCN(c2nnc3c(Cl)cccn23)CC1` the value was 700 s; for `CCc1nnc(-c2ccc(NS(=O)(=O)c3cccs3)cc2)o1`, 772 s; for `CN1C(=O)C(CC(=O)N2CCCCCC2)Sc2ncccc21` (stereo not given), 705 s.
`O=C(NCC(=O)N1CCn2c1nc1ccccc12)c1ccc(=O)[nH]c1` gave an RP-LC retention time of 555 s.
Then `Cc1ccc(S(=O)(=O)N2CCn3c(nnc3C3CCN(C(C)C)C3)C2)c(C)c1` (stereo not given), with 616 s; and `CCOc1cc(C(=O)Nc2nc(-c3ccc4c(c3)N(C)C(=O)CO4)cs2)cc(OCC)c1OCC`, with 1140 s.
For `COc1ccc(-n2nc(SCC(=O)Nc3ccc(F)c(F)c3)ccc2=O)cc1` the value was 772 s; for `COC(=O)c1cc(OCC(=O)Nc2ccc(OC)c(OC)c2)c2cc(F)ccc2n1`, 756 s; for `Cn1cc2c3c(cccc31)CN(C(=O)c1ccc(C#N)cc1)CC2`, 884 s.
Then `COc1ccc2c(c1)C1CC(C)(O2)N(C)C(=O)C1S(=O)(=O)c1ccc(C)cc1` (stereo not given), with 1020 s.

For the origin of these results see the METLIN SMRT retention time set (Domingo-Almenara et al. 2019).
